In patent publication US6087336A, “Peptide derivatives useful in treating autoimmune diseases” (Zeneca Limited, priority 1996, dated 2000):

Columns and labels:
[1] = format: physicochemical
Protocol: Typical procedures for measuring the level of degradation of a peptide of the present invention are as follows:
Prenaration of extruded polymer depot formulation of peptide
About 20 mg of peptide is accurately weighed and sufficient polymer (50/50% molar poly(D,L-lactic acid/glycolic acid) copolymer of approximate weight average molecular weight 20kD and approximate polydispersity of 1.7 as determined by size exclusion chromatography relative to polystyrene standards) added to produce an approximate 20% w/w mixture. This is dissolved in […] glacial acetic acid to produce an approximate 10% w/v solution. The solution is freeze dried and the resulting freeze dried product is stored under vacii, prior to use.
About 100 mg of freeze dried material is loaded into the barrel of a small laboratory extruder and the plunger pushed down to consolidate the sample. The extruder is heated to between 90 and 95° C. and held at this temperature for 10 minutes before the freeze dried material is extruded under presure to give a cylindrical extrudate of approximately 1 mm in diameter.
Analysis of peptide content of extruded polymer depot formulation of peptide
Two approximate 5 mm lengths of extruded polymer depot containing peptide are accurately weogjed amd eacj dosspved 1 ml of anhydride-free glacial acetic acid in separate 25 ml bolumertic flasks. After about 1.5 hours the volume of each is made up to 25 ml with distilled water, causing the polymer to precipitate. The solids are filtered off using a 0.5 μm Millex PTFE filter and the solutions, A, collected. […]
Each standard is filtered through a 5 μm Millex PTFE filter and an aliquot of filtrate, together with aliquots of the solutions A, analysed by HPLC using duplicate sample injections. The peptide content of the extruded polymer depot formulation of peptide is calculated from the concentration of peptide in solutions A, which is determined by comparing the area of the peptide peak in solutions A with the area of the peptide peak from the standard solutions.

[2] = target: T1, HLA-DR4Dw4 (Homo sapiens, UniProt P01903+P01911, A100K/A169T/F76Y/I96L/K127E/L162R/M171V/N62H/P40V/Q125Y/R42H/S133A/S149N/S66Y/V115G/V209L/W38E); assay: Variant to Test A: peptide selectivity binding assay, HLA-DR4Dw4
T1 construct: a cDNA encoding the β chain is cloned into the transfer vector pAcUW1; made in house; host or cells: Sf21 insect cells, double-recombinant baculovirus
Protocol: (§1) As a variant to test A, the ability of a peptide of the invention to bind to one or more HLA-DR molecules was assessed as follows:
(§2) (i) Purification of HLA-DR Types from Cell Lines
(§3) The method used was a modification of that described by Gorga et al, 1987, J.Biol.Chem. 262, 16087-16094. Human HLA-DR antigens were purified from various cell lines by immunoaffinity chromatography. […] Protein content was determined by a Biorad protein assay and purity by SDS-PAGE electrophoresis. […]
(§4) 200 nM biotin-FHA307-320 in phosphate buffered saline (PBS) was incubated with either purified HLA-DR1, DR2, DR4Dw4, DR4Dw13 or DR4Dw14, (2-20μg/ml) in V-well microtitre plates (Nunc) with or without inhibitor peptides in assay buffer (PBS, 0.01% NP40 (Sigma.)) For DR3 inhibition, 400 nM Biotin-Ahx-(D)Ala-Ala-Ala-Che-lle-Ala-Ala-Ala-Thr-Leu-Lys-Ala-Ala-(D)Ala-OH was incubated with purified DR3 (20 μg/ml.), and incubated as above. After 48 hours, the incubates were treated, and absorbance readings taken as described in Test A. The inhibitory activity of peptides, expressed as IC50 values, was calculated using Microcal Origin software on a PC.

[3] = test system: HLA-DR2; assay: Variant to Test A: peptide selectivity binding assay, HLA-DR2; parameters: species or system Human
Protocol: as §1, §2, §3, §4

[4] = format: physicochemical; conditions: for aqueous stability at pH3: pH 3
Protocol: A typical procedure for measuring the stability of a peptide derivative of the present invention is as follows, in which, to minimize microbial contamination and degradation, all equipment that is used to prepare peptide solutions is sterilized in an autoclave and all material transfers carried out in a Class II laminar flow cabinet. Approximately 20 ml of Mcllvaine's citric acid-phosphate buffer solution at pH 3 or 7.6 containing 0.02% sodium azide is filtered into a 50 mL bottle using a sterile 0.22 μm filter unit and a 20 ml syringe. Approximately 1.2 mg of peptide is accurately weighed in a capped vial. Using a sterile pipette tip, sufficient buffer solution is added to the peptide in the vial to give a peptide concentration of 0.1 mg/ml. The vial is capped and shaken to dissolve the peptide. Using a sterile pipette tip, aliquots of approximately 1 ml of the peptide solution are transferred to 10 HPLC vials, which are then capped. 5 vials are stored at -18 and 37° C. The area of the peptide peak for the solution is determined by HPLC using appropriate standards initially and after storage at -18 and 37° C. for 1, 2, 3 and 4 weeks, using a fresh vial at each time point with duplicate sample injections. The percentage of peptide remaining after storage at 37° C. at each time point is determined from the ratio of the area of the peptide peak at each time point to the initial area. Preferred peptide derivatives of the present invention have greater than 90%, and preferably greater than 95%, of peptide remaining after storage at 37° C. at both pH 3 and 7.6.

[5] = test system: HLA-DR4Dw14; assay: Variant to Test A: peptide selectivity binding assay, HLA-DR4Dw14; parameters: species or system Human
Protocol: as §1, §2, §3, §4

| Substance | loss due to degradation on extrusion [1] | binding to HLA-DR4Dw4 [2] | binding to HLA-DR2 [3] | aqueous stability at pH3 [4] | aqueous stability at pH 7.6 [4] | binding to HLA-DR4Dw14 [5] |
| --- | --- | --- | --- | --- | --- | --- |
| Phv-Ala-Arg-Ala-IIb-Ala-Arg-Ala-Papa-NH2 [Example 23] | minimal loss due to degradation on extrusion | bind significantly | bind significantly | good aqueous stability | good aqueous stability | bind significantly |
| Phv-Arg-Ala-Ala-Ala-Val-IIb-Ala-Pip-NH2 [Example 5] | minimal loss due to degradation on extrusion |  |  | good aqueous stability | good aqueous stability |  |
| Phv-Gap(Me)4 -Ala-Ala-Ala-Thr-IIb-Ala-Papa-NH2 [Example 16] | minimal loss due to degradation on extrusion |  |  | good aqueous stability | good aqueous stability |  |
